In patent publication US20040018253A1, “Use of CYP2D6 inhibitors in combination therapies” (priority 1999, published 2004):
Where two headings read alike, the source gives them in different places.

Key:
[1] = target: T1, CYP2D6 (Homo sapiens, UniProt P10635); assay: CYP2D6 catalyzed metabolism, Michaelis-Menten KM
[2] = Human pharmacokinetics of CYP2D6 substrates (half-life, oral bioavailability, hepatic extraction)
[3] = target: T1, CYP2D6
[4] = in vivo
[5] = test system: CYP; conditions: cited from earlier work
[6] = after oral administration of imipramine; extensive metabolizers; cited from earlier work
[7] = increasing dose; not observed in poor metabolizers; cited from earlier work
[8] = target: T1, CYP2D6; conditions: in vivo, via inhibition of CYP2D6; cited from earlier work

T1 sequence (P10635 whole entry): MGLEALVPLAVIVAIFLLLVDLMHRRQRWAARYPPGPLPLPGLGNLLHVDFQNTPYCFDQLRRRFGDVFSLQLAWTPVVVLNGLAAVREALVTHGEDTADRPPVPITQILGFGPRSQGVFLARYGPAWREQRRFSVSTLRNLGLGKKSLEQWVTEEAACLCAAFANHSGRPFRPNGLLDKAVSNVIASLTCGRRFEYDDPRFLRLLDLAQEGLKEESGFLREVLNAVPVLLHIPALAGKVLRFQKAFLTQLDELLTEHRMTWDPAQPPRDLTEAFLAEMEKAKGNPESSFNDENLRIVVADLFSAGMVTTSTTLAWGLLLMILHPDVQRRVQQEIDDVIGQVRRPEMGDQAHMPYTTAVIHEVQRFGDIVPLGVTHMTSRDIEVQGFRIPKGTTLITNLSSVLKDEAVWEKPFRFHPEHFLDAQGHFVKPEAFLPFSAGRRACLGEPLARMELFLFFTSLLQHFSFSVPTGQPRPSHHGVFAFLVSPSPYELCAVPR

C[C@@H]([C@@H](O)c1ccc(O)cc1)N1CCC(O)(c2ccccc2)CC1 [(1S,2S)-1-(4-hydroxyphenyl)-2-(4-hydroxy-4-phenylpiperidin-1-yl)-1-propanol]
Km ([1]; human): 3 to 4 µM
half-life ([2]; in vivo): 3 to 4 h

COc1ccccc1CN[C@H]1CCCN[C@H]1c1ccccc1 [(2S,3S)-2-phenyl-3-(2-methoxyphenyl)-methylaminopiperidine]
Km [3]: ~1 µM
human half-life ([4]; human): about 4.7 hours
human oral bioavailability ([4]; human, po): 1.0%
hepatic extraction ([4]; iv): exceeds 90%

O=c1c(-c2c(O)cc(O)c3c(=O)cc(-c4ccc(O)cc4)oc23)c(-c2ccc(O)cc2)oc2cc(O)cc(O)c12 [I3, II8-biapigenin]
CYP inhibitory activity [5]: exhibit CYP inhibitory activity

CNCCCN1c2ccccc2CCc2ccccc21 [desipramine]
range of steady state plasma concentrations [6]: 20 fold

Cc1cc(O)c2c(=O)c3c(O)cc(O)c4c5c(O)cc(O)c6c(=O)c7c(O)cc(C)c8c1c2c(c34)c(c78)c65 [hypericin]
CYP inhibitory activity [5]: exhibit CYP inhibitory activity

CN(C)CCCN1c2ccccc2CCc2ccccc21 [imipramine]
range of steady state plasma concentrations [6]: 20 fold

Fc1ccc([C@@H]2CCNC[C@H]2COc2ccc3c(c2)OCO3)cc1 [paroxetine]
dose-exposure relationship [7]: supraproportional

O=c1c(O)c(-c2ccc(O)c(O)c2)oc2cc(O)cc(O)c12 [quercetin]
CYP inhibitory activity [5]: exhibit CYP inhibitory activity

C=C[C@H]1C[N@@]2CC[C@H]1C[C@@H]2[C@@H](O)c1ccnc2ccc(OC)cc12 [quinidine]
effect on metabolizer phenotype [8]: converting an extensive metabolizer to the poor metabolizer phenotype

O=C1CCC(=O)N1C[C@H]1CC[C@H]2CN(c3ncccn3)CCN2C1 [sunipetron, (7S,9S)-2-(2-pyrimidyl)-7-(succinamidomethyl)-prehydro-1H-pyrido-[1,2-a]pyrazine]
Km ([1]; CYP2D6 substrate): ~1 µM
human oral bioavailability ([2]; oral): 4.6%
